The test is filed under the species Rattus norvegicus. In words: Antiandrogen activity in male rats. The test is classed as functional.
For orientation: ED50 means the dose at which the effect has come halfway, by size or by number of responders. Low values mean greater potency, high ones weaker potency. In turn, `C[C@@](O)(CSc1ccc(F)cc1)C(=O)Nc1ccc(C#N)c(C(F)(F)F)c1` had an ED50 of 30 mg/kg.
`CC(O)(CSc1ccc(F)cc1)C(=O)Nc1ccc(C#N)c(C(F)(F)F)c1` (stereo unspecified) displayed a 50% effective dose (ED50) of 0.5 mg/kg.
With `C[C@](O)(CS(=O)(=O)c1ccc(F)cc1)C(=O)Nc1ccc(C#N)c(C(F)(F)F)c1` [(R)-BICALUTAMIDE], the ED50 turned out to be 0.5 mg/kg.
Compound `C[C@@](O)(CS(=O)(=O)c1ccc(F)cc1)C(=O)Nc1ccc(C#N)c(C(F)(F)F)c1` [(S)-BICALUTAMIDE] showed an ED50 of 30 mg/kg.
Take `CC(O)(CS(=O)(=O)c1ccc(F)cc1)C(=O)Nc1ccc(C#N)c(C(F)(F)F)c1` (stereo unspecified) [BICALUTAMIDE]: the ED50 is 0.5 mg/kg.
The figure for `C[C@](O)(CSc1ccc(F)cc1)C(=O)Nc1ccc(C#N)c(C(F)(F)F)c1` is 0.5 mg/kg.

These data come from ChEMBL document CHEMBL1124095, “Resolution of the nonsteroidal antiandrogen 4'-cyano-3-[(4-fluorophenyl)sulfonyl]-2-hydroxy-2-methyl-3'- (trifluoromethyl)-propionanilide and the determination of the absolute configuration of the active enantiomer” (1988).
